Test results reported in PubChem BioAssay (NCI).
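Results reflect a 48-hour exposure of cells in 96-well plates to compound at five concentrations. GI50 = concentration required for 50% inhibition of growth. TGI denotes the concentration required for complete inhibition of growth.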

Experiments:
Assay in all cases: NCI-60 cell line screen, 48 h
A549 NSCLC = test system: A549 NSCLC
RPMI-8226 leukemia = test system: RPMI-8226 leukemia
PC-3 prostate = test system: PC-3 prostate
HL-60(TB) leukemia = test system: HL-60(TB) leukemia
SW-620 colon = test system: SW-620 colon
UACC-62 melanoma = test system: UACC-62 melanoma
SK-OV-3 ovarian = test system: SK-OV-3 ovarian
BT-549 breast = test system: BT-549 breast
HT29 colon = test system: HT29 colon
CAKI-1 renal = test system: CAKI-1 renal

SMILES	TGI (A549 NSCLC)	TGI (RPMI-8226 leukemia)	TGI (PC-3 prostate)	TGI (HL-60(TB) leukemia)	TGI (SW-620 colon)	TGI (UACC-62 melanoma)	TGI (SK-OV-3 ovarian)	TGI (BT-549 breast)	TGI (HT29 colon)	TGI (CAKI-1 renal)	GI50 (A549 NSCLC)	GI50 (RPMI-8226 leukemia)	GI50 (PC-3 prostate)	GI50 (HL-60(TB) leukemia)	GI50 (SW-620 colon)	GI50 (UACC-62 melanoma)	GI50 (SK-OV-3 ovarian)	GI50 (BT-549 breast)	GI50 (HT29 colon)	GI50 (CAKI-1 renal)
CCOC(=O)Oc1cc2c(c(OC)c1OC)-c1ccc(OC)c(=O)cc1C(NC(C)=O)CC2 (centres undefined)	> 100 µM	70.6 µM	> 100 µM	0.0298 µM	> 100 µM	25.2 µM	98.1 µM	> 100 µM	13.2 µM	> 100 µM	–	–	–	–	–	–	–	–	–	–
CCC(C)[C@H](NC(=O)Nc1cc(C(F)(F)F)cc(C(F)(F)F)c1)C(=O)N[C@@H](Cc1cn(C)cn1)C(=O)OC (some centres undefined)	1.85 µM	1.86 µM	1.77 µM	3.22 µM	1.53 µM	1.86 µM	1.82 µM	1.68 µM	1.4 µM	4 µM	1330 nM	721 nM	715 nM	1350 nM	690 nM	1110 nM	1380 nM	698 nM	711 nM	2080 nM
Cc1cc2c(cc1Cl)S/C(=C/C(=O)O)C(Nc1ccc3ncsc3c1)=NS2(=O)=O	> 62 µM	19.3 µM	> 49.4 µM	> 100 µM	> 56 µM	> 57.7 µM	> 52 µM	29 µM	> 100 µM	> 48.9 µM	> 25000 nM	1680 nM	14200 nM	9160 nM	16300 nM	33500 nM	> 33400 nM	7120 nM	19400 nM	22100 nM
COc1ncc(Nc2ncc([C@@H](C)N3CCN(S(C)(=O)=O)CC3)cc2-c2nc(C)nc(N)n2)cc1F	> 40.7 µM	> 100 µM	> 100 µM	> 57.3 µM	> 100 µM	1.2 µM	0.394 µM	6.23 µM	> 100 µM	> 100 µM	186 nM	7130 nM	< 13.9 nM	21.4 nM	2820 nM	< 11.3 nM	17.1 nM	21.9 nM	35.5 nM	194 nM
COc1ccc(C/C(=C(\C)c2ccc(OCCN3CCCC3)cc2)c2ccc(OCCN3CCCC3)cc2)cc1	3.84 µM	4.3 µM	4.07 µM	3.63 µM	3.65 µM	3.38 µM	3.68 µM	3.25 µM	3.07 µM	3.09 µM	1820 nM	1870 nM	1750 nM	1670 nM	1750 nM	1780 nM	1860 nM	1670 nM	1580 nM	1660 nM
COc1ccc2c(c1)[nH]c(=O)c1c3cccc(F)c3cn21	> 100 µM	0.27 µM	> 31.9 µM	0.0515 µM	25.8 µM	> 100 µM	> 83.5 µM	> 100 µM	–	0.04 µM	66.7 nM	29.5 nM	34.5 nM	18.3 nM	34.3 nM	37.9 nM	84.8 nM	21200 nM	30.6 nM	13.7 nM
COc1ccc2c(c1)nc(C(=O)c1ccco1)c(C(F)(F)F)[n+]2[O-]	> 100 µM	> 100 µM	> 100 µM	> 100 µM	> 100 µM	> 100 µM	> 100 µM	> 100 µM	> 100 µM	> 100 µM	> 100000 nM	> 100000 nM	77400 nM	> 100000 nM	> 100000 nM	> 100000 nM	> 100000 nM	> 100000 nM	> 100000 nM	> 100000 nM
